Test results taken from patent publication US20190381071A1, “METHODS AND COMPOSITIONS FOR TREATING AND/OR PREVENTING THE PROGRESSION AND/OR ONSET OF AGE-RELATED NEURODEGENERATION” (Enterin, Inc., priority 2018, published 2019).
“Also recorded” adds a separate entry of the source.

Experiments:
[1] = U.S. Pat. No. 6,143,738; Ahima et al. (2002); cited from earlier work
B6D2F1 (BDF1) mice = assay: Dose response of growth delay in BDF1 mice (Example 1, FIG. 2); type: in vivo; conditions: for age at which animals reached maturity: male BDF1 mice, controls 120 days; for delay in reaching maturity, as measured by end weight: vs control
Protocol: While all animals reached the mature weight of about 40 grams, the control animals reached maturity at 120 days, and the animals that received 5 and 10 mg/kg of Aminosterol 1436 reached maturity at 150 and 255 days, respectively.
An experiment was conducted to explore the dose response to a delay in growth of B6D2F1 (BDF1) mice to Aminsoterol 1436.
30 day old male BDF1 mice received either vehicle or Aminosterol 1436 intraveneously (IV) at 5 mg/kg or 10 mg/kg (n=15 for each treatment arm) every 3 days until 51 days of age. The Aminosterol 1436 was administered as a aqueous solution in water. BDF1 mice are available from Charles River Laboratories. The animals were fed standard lab chow, offered ad libitum. The animals were weighed and body length measured every 5 days.
However, while the control animals reached maturity at 120 days, the animals that received 5 mg/kg of Aminosterol 1436 reached maturity at 150 days, corresponding to a 25% delay in reaching maturity, as measured by end weight. […] Most importantly, both treated and untreated animals reached normal adult dimensions, albeit at different rates.

[2] = Brain localisation of radioactive Aminosterol 1436 after IV or ICV administration (FIG. 1); type: in vivo; conditions: radioactive compound, rat, IV via peripheral vein or injected into 3rd ventricle (ICV)
Excerpt: The exact mechanism by which Aminosterol 1436 achieves its effect on preventing, delaying onset, and/or treating neurodegeneration, delaying maturity, retarding aging, and increasing potential lifespan is not known. However, without being bound by theory, Applicant theorizes that the effect of Aminosterol 1436 is likely in part due to the drug's effects on the hypothalamus within the brain of the animal.

C57BL/6 males = assay: Growth delay in C57BL/6 mice (Example 2, FIG. 3); type: in vivo; conditions: for weight: 10 mg/kg i.p. every 3 days for two doses
Protocol: Animals were then weighed and body length measured once weekly for a period of 40 days.
An experiment was conducted to determine whether treatment of animals with Aminosterol 1436 would delay growth of the animal.
C57BL/6 males (12-16 grams) were administered either vehicle or 10 mg/kg (i.p.) of Aminosterol 1436 every 3 days for two doses, for a total of 20 mg/kg over a 6 day period. The mice were about 3 weeks old, and there were 10 mice/arm. The animals were weighed and body length measured once weekly for a period of 40 days.
The results shown in FIG. 3 indicate that growth rates of the animals were slowed upon administration of Aminosterol 1436, which is consistent with the results shown in FIG. 2 and described in Example 1.

HIV = conditions: tissue culture; U.S. Pat. No. 5,763,430; cited from earlier work
phosphatase PTP1B = target: T1, phosphatase PTP1B (Homo sapiens, UniProt P18031); conditions: Lantz et al., 2010; cited from earlier work
T1 sequence (P18031 1-435): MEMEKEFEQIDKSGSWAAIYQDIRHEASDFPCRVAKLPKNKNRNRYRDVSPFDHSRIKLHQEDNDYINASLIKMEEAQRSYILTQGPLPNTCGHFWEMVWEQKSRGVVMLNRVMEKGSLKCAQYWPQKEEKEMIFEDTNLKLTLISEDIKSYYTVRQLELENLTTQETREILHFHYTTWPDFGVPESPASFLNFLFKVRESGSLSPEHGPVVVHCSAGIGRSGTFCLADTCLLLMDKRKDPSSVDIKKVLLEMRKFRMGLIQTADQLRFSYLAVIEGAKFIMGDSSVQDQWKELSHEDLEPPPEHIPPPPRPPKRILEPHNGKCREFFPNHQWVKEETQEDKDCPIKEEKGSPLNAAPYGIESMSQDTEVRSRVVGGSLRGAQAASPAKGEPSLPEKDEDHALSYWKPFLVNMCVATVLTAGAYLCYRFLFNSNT

adult mouse = assay: Neuroregeneration in adult mouse brain; type: in vivo
Excerpt: The hypothalamus is of particular interest because it happens to be the site of localization of Aminosterol 1436 in the brain.

SMILES | appetite suppression and weight loss [1] | growth rate slower than the controls (by increasing weight) (B6D2F1 (BDF1) mice; 5 mg/kg IV) | age at which animals reached maturity (B6D2F1 (BDF1) mice; 5 mg/kg IV every 3 days from 30 to 51 days of age) [days] | delay in reaching maturity, as measured by end weight (B6D2F1 (BDF1) mice; 5 mg/kg IV) [%] | growth rate slowed (by increasing weight) (B6D2F1 (BDF1) mice; 10 mg/kg IV) [%] | age at which animals reached maturity (B6D2F1 (BDF1) mice; 10 mg/kg IV every 3 days from 30 to 51 days of age) [days] | delay in reaching maturity, as measured by end weight (B6D2F1 (BDF1) mice; 10 mg/kg IV) [%] | linear growth (B6D2F1 (BDF1) mice; 5 and 10 mg/kg IV, data not shown) | mature weight reached (B6D2F1 (BDF1) mice; all animals (5 mg/kg, 10 mg/kg and control)) | accumulation in brain [2] | weight (C57BL/6 males; Day 0, control 16 g) [g] | decrease in weight (C57BL/6 males; Day 0 to Day 40, 10 mg/kg i.p. x 2, control increase of 50%) [%] | weight (C57BL/6 males; Day 40, control 24 g) [g] | antiviral activity against HIV (HIV) | inhibition of PTP1B (phosphatase PTP1B) | neuroregeneration (adult mouse) | number of cells in brain areas (adult mouse; subependymal zone, granular layers of olfactory bulb, medial and lateral hypothalamus, thalamus)
CC(C)[C@@H](CC[C@@H](C)[C@H]1CC[C@H]2[C@@H]3[C@H](O)C[C@H]4C[C@@H](NCCCNCCCCNCCCN)CC[C@]4(C)[C@H]3CC[C@]12C)OS(=O)(=O)O [Aminosterol 1436, trodusquemine] | potent appetite suppression and promotion of dose-dependent weight loss | about 30% | 150 | 25 | 50 | 255 | 112.5 | slowed to a corresponding degree | about 40 grams | accumulation of Aminosterol 1436 within the centers of the brain that control growth, maturation, and senescence; also recorded: accumulates within the centers of the brain that control growth, maturation and senescence | 12 | 8.3 | 11 | exhibits antiviral activity against HIV | inhibit the phosphatase PTP1B | stimulates neuroregeneration | increase
CC(C)[C@@H](CC[C@@H](C)[C@H]1CC[C@H]2[C@@H]3[C@H](O)C[C@H]4C[C@@H](NCCCNCCCCN)CC[C@]4(C)[C@H]3CC[C@]12C)OS(=O)(=O)O [squalamine, reference compound] | not shared with squalamine | – | – | – | – | – | – | – | – | – | – | – | – | – | – | – | –
